Test [1] has as its target glucosylceramide synthase (GCS) (Homo sapiens (Human), UniProt Q16739). The test can be described thus: Evaluation of inhibitory activities against GCS (enzyme reaction with A549 cell lysate, NBD C6-ceramide, HPLC fluorescence). The test is classed as biochemical. The settings on record: GCS activity in A549 cell lysate, 37° C. for 90 minutes. On the procedure:
Ibiglustat, known as a GCS inhibitor, was used as a control.
After the cells attached to the culture dish were washed with phosphate buffered saline (PBS), the cells were scraped off with a cell scraper and then centrifuged (4000 rpm, 3 min, 4° C.) to collect the cells in a 50 ml tube. The cell pellets were suspended in a lysis buffer (50 mM HEPES, pH 7.3, containing 1× the protease/phosphatase inhibitor cocktail), lysed by sonication, and then the lysate was centrifuged (13000 rpm, 10 min, 4° C.). The obtained supernatant was used for the quantitative analysis of proteins. The amount of proteins was measured using the BCA protein assay kit, using bovine serum albumin as a standard.
Enzymatic reactions were initiated by sequentially adding the following reaction materials to a 96 deep-well plate. Thereafter, the enzymatic reactions were performed at 37° C. for 90 minutes.
The enzymatic reactions were stopped by adding 100 μl of chloroform/methanol (2:1, v/v). After vortexing for 15 seconds, each mixture was centrifuged (4000 rpm, 10 min, 18° C.). The lower layer (50 μl) was transferred to a new 96 deep-well plate and dried with a reduced concentrator.
Data analysis was performed by the following equations. % Area (Sample)=Area (GlcCer)/[Area (Cer)+Area (GlcCer)]×100 % GCS activity=[Area(Sample)−Area(ibiglustat)]/[Area(DMSO)−Area(ibiglustat)]×100

Test [2] deals with GM1 production. Kind of test: cells. Type of test: cell-based.

Read-outs that look alike come from different tables or passages of the source.

The IC50 is the point on the concentration scale where inhibition reaches its midpoint.

Chain of glucosylceramide synthase (GCS) (Q16739 whole entry, looked up): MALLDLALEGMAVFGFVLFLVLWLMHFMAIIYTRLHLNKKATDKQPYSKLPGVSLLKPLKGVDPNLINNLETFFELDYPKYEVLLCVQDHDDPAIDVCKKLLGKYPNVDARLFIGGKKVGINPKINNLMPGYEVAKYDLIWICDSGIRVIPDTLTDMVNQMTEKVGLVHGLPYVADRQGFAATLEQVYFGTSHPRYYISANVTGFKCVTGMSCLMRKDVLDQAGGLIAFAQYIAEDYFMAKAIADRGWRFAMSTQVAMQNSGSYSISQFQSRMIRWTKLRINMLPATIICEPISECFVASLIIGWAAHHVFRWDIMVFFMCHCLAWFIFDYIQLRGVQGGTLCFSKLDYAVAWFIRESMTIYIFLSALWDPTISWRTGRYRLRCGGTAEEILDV

Turning to `CCc1ccccc1-c1ccc2c(c1)CCCC2NC(=O)O[C@@H]1CN2CCC1CC2` (stereo partly drawn) [Example 41, (S)-quinuclidin-3-yl (6-(2-ethylphenyl)-1,2,3,4-tetrahydronaphthalen-1-yl)carbamate], the half-maximal inhibitory concentration (IC50) in test [1] is 9.08 nM; in test [2] (Homo sapiens, Jurkat, 72 h) it was 292 nM.
For `COCCOc1ccc(-c2ccc3c(c2)C(NC(=O)O[C@@H]2CN4CCC2CC4)C(C)(C)CC3)cc1` (stereo partly drawn) [Example 165, (S)-quinuclidin-3-yl (7-(4-(2-methoxyethoxy)phenyl)-2,2-dimethyl-1,2,3,4-tetrahydronaphthalen-1-yl)carbamate], the IC50 in test [1] stood at 18.4 nM; in test [2] (Homo sapiens, Jurkat, 72 h) it was 24.3 nM.
Taken in the same sequence, the figures for `COc1ccc(-c2ccc3c(c2)CCC(C)(C)C3NC(=O)O[C@@H]2CN3CCC2CC3)cc1` (stereo partly drawn) [Example 120, (S)-quinuclidin-3-yl (6-(4-methoxyphenyl)-2,2-dimethyl-1,2,3,4-tetrahydronaphthalen-1-yl)carbamate] were 5.65 nM and 1.83 nM.
Taken in the same sequence, the figures for `COCOc1cccc(-c2ccc3c(c2)CCC2(CC2)C3NC(=O)O[C@@H]2CN3CCC2CC3)c1` (stereo partly drawn) [Example 198, (S)-quinuclidin-3-yl (6′-(3-(methoxymethoxy)phenyl)-3′,4′-dihydro-1′H-spiro[cyclopropane-1,2′-naphthalen]-1′-yl)carbamate] were 5.17 nM and 8.68 nM.
Taken in the same sequence, the figures for `COCCOc1ccc(-c2ccc3c(c2)CCCC3NC(=O)O[C@@H]2CN3CCC2CC3)cc1` (stereo partly drawn) [Example 25, (S)-quinuclidin-3-yl (6-(4-(2-methoxyethoxy)phenyl)-1,2,3,4-tetrahydronaphthalen-1-yl)carbamate] were 15 nM and 45.1 nM.
Turning to `O=C(NC1CCCc2cc(-c3ccc(OC(F)F)cc3)ccc21)O[C@@H]1CN2CCC1CC2` (stereo partly drawn) [Example 13, (S)-quinuclidin-3-yl (6-(4-(difluoromethoxy)phenyl)-1,2,3,4-tetrahydronaphthalen-1-yl)carbamate], the IC50 in test [1] amounted to 23.5 nM; in test [2] (Homo sapiens, Jurkat, 72 h), 143 nM.
Turning to `O=C(NC1c2ccc(-c3cccc(OC(F)(F)F)c3)cc2CCC12CC2)O[C@@H]1CN2CCC1CC2` (stereo partly drawn) [Example 193, (S)-quinuclidin-3-yl (6′-(3-(trifluoromethoxy)phenyl)-3′,4′-dihydro-1′H-spiro[cyclopropane-1,2′-naphthalen]-1′-yl)carbamate], the IC50 in test [1] worked out at 20.9 nM; in test [2] (Homo sapiens, Jurkat, 72 h), 21.6 nM.
As for `CC(C)c1cccc(-c2ccc3c(c2)CCC2(CC2)C3NC(=O)O[C@@H]2CN3CCC2CC3)c1` (stereo partly drawn) [Example 205, (S)-quinuclidin-3-yl (6′-(3-isopropylphenyl)-3′,4′-dihydro-1′H-spiro[cyclopropane-1,2′-naphthalen]-1′-yl)carbamate], the IC50 in test [1] amounted to 34.2 nM; in test [2] (Homo sapiens, Jurkat, 72 h) it was 44.3 nM.
As for `COc1cc(OC)cc(-c2ccc3c(c2)CCC2(CC2)C3NC(=O)O[C@@H]2CN3CCC2CC3)c1` (stereo partly drawn) [Example 214, (S)-quinuclidin-3-yl (6′-(3,5-dimethoxyphenyl)-3′,4′-dihydro-1′H-spiro[cyclopropane-1,2′-naphthalen]-1′-yl)carbamate], the IC50 in test [1] came to 32.6 nM; in test [2] (Homo sapiens, Jurkat, 72 h) it was 62.3 nM.
For the molecule `CC1(C)CCc2cc(-c3cccc(OC(F)(F)F)c3)ccc2C1NC(=O)O[C@@H]1CN2CCC1CC2` (stereo partly drawn) [Example 93, (S)-quinuclidin-3-yl (2,2-dimethyl-6-(3-(trifluoromethoxy)phenyl)-1,2,3,4-tetrahydronaphthalen-1-yl)carbamate], the IC50 stood at 1.76 nM in test [1] and 0.388 nM in test [2] (Homo sapiens, Jurkat, 72 h).
For `CC(C)(C)c1ccc(-c2ccc3c(c2)CCCC3NC(=O)O[C@@H]2CN3CCC2CC3)cc1` (stereo partly drawn) [Example 36, (S)-quinuclidin-3-yl (6-(4-(tert-butyl)phenyl)-1,2,3,4-tetrahydronaphthalen-1-yl)carbamate], the IC50 was found to be 22.4 nM in test [1] and 339 nM in test [2] (Homo sapiens, Jurkat, 72 h).
Taken in the same sequence, the figures for `CC(C)Oc1ccc(-c2cc3c(cc2F)C(NC(=O)O[C@@H]2CN4CCC2CC4)C(C)(C)CC3)cc1` (stereo partly drawn) [Example 232, (S)-quinuclidin-3-yl (7-fluoro-6-(4-isopropoxyphenyl)-2,2-dimethyl-1,2,3,4-tetrahydronaphthalen-1-yl)carbamate] were 0.29 nM and 2.7 nM.
Taken in the same sequence, the figures for `O=C(NC1c2ccc(-c3ccc(C(F)(F)F)cc3)cc2CCC12CC2)O[C@@H]1CN2CCC1CC2` (stereo partly drawn) [Example 188, (S)-quinuclidin-3-yl (6′-(4-(trifluoromethyl)phenyl)-3′,4′-dihydro-1′H-spiro[cyclopropane-1,2′-naphthalen]-1′-yl)carbamate] were 16.1 nM and 34.1 nM.
As for `COc1cc(-c2ccc3c(c2)CCC(C)(C)C3NC(=O)O[C@@H]2CN3CCC2CC3)ccc1Cl` (stereo partly drawn) [Example 124, (S)-quinuclidin-3-yl (6-(4-chloro-3-methoxyphenyl)-2,2-dimethyl-1,2,3,4-tetrahydronaphthalen-1-yl)carbamate], the IC50 was 1.6 nM in test [1] and 3.35 nM in test [2] (Homo sapiens, Jurkat, 72 h).
For `COCCOc1cccc(-c2ccc3c(c2)CCC(C)(C)C3NC(=O)O[C@@H]2CN3CCC2CC3)c1` (stereo partly drawn) [Example 111, (S)-quinuclidin-3-yl (6-(3-(2-methoxyethoxy)phenyl)-2,2-dimethyl-1,2,3,4-tetrahydronaphthalen-1-yl)carbamate], in that order: 2.36 nM and 1.84 nM.
As for `COc1cccc(-c2ccc3c(c2)CCC(C)(C)C3NC(=O)O[C@@H]2CN3CCC2CC3)c1OC` (stereo partly drawn) [Example 133, (S)-quinuclidin-3-yl (6-(2,3-dimethoxyphenyl)-2,2-dimethyl-1,2,3,4-tetrahydronaphthalen-1-yl)carbamate], the IC50 in test [1] stood at 1.05 nM; in test [2] (Homo sapiens, Jurkat, 72 h), 1 nM.
With `CCCOc1ccc(-c2ccc3c(c2)CCC(C)(C)C3NC(=O)O[C@@H]2CN3CCC2CC3)cc1F` (stereo partly drawn) [Example 145, (S)-quinuclidin-3-yl (6-(3-fluoro-4-propoxyphenyl)-2,2-dimethyl-1,2,3,4-tetrahydronaphthalen-1-yl)carbamate], the IC50 in test [1] is 0.87 nM; in test [2] (Homo sapiens, Jurkat, 72 h), 0.7 nM.
Taken in the same sequence, the figures for `O=C(NC1c2cc(-c3cccc(F)c3)ccc2CCC12CC2)O[C@@H]1CN2CCC1CC2` (stereo partly drawn) [Example 175, (S)-quinuclidin-3-yl (7′-(3-fluorophenyl)-3′,4′-dihydro-1′H-spiro[cyclopropane-1,2′-naphthalen]-1′-yl)carbamate] were 14.8 nM and 167 nM.
Regarding `O=C(NC1CCCc2cc(-c3ccccc3OC(F)(F)F)ccc21)O[C@@H]1CN2CCC1CC2` (stereo partly drawn) [Example 12, (S)-quinuclidin-3-yl (6-(2-(trifluoromethoxy)phenyl)-1,2,3,4-tetrahydronaphthalen-1-yl)carbamate], the IC50 stood at 9.28 nM in test [1] and 19.6 nM in test [2] (Homo sapiens, Jurkat, 72 h).
Taken in the same sequence, the figures for `CC(C)(C)c1cccc(-c2ccc3c(c2)CCC(C)(C)C3NC(=O)O[C@@H]2CN3CCC2CC3)c1` (stereo partly drawn) [Example 128, (S)-quinuclidin-3-yl (6-(3-(tert-butyl)phenyl)-2,2-dimethyl-1,2,3,4-tetrahydronaphthalen-1-yl)carbamate] were 2.84 nM and 1.3 nM.
Taken in the same sequence, the figures for `CC(C)Oc1ccc(-c2ccc3c(c2)CCC(C)(C)C3NC(=O)O[C@@H]2CN3CCC2CC3)cc1Cl` (stereo partly drawn) [Example 149, (S)-quinuclidin-3-yl (6-(3-chloro-4-isopropoxyphenyl)-2,2-dimethyl-1,2,3,4-tetrahydronaphthalen-1-yl)carbamate] were 3.5 nM and 3.9 nM.
For `CC1(C)CCc2cc(-c3cc(Cl)ccc3Cl)ccc2C1NC(=O)O[C@@H]1CN2CCC1CC2` (stereo partly drawn) [Example 105, (S)-quinuclidin-3-yl (6-(2,5-dichlorophenyl)-2,2-dimethyl-1,2,3,4-tetrahydronaphthalen-1-yl)carbamate], in that order: 1.39 nM and 0.21 nM.
Take `CC1(C)CCc2cc(-c3ccc(OC(F)F)cc3)ccc2C1NC(=O)O[C@@H]1CN2CCC1CC2` (stereo partly drawn) [Example 99, (S)-quinuclidin-3-yl (6-(4-(difluoromethoxy)phenyl)-2,2-dimethyl-1,2,3,4-tetrahydronaphthalen-1-yl)carbamate]: the IC50 was found to be 1.65 nM in test [1] and 2.56 nM in test [2] (Homo sapiens, Jurkat, 72 h).
Take `CC1(C)CCc2cc(-c3ccnc(C(F)(F)F)c3)ccc2C1NC(=O)O[C@@H]1CN2CCC1CC2` (stereo partly drawn) [Example 119, (S)-quinuclidin-3-yl (2,2-dimethyl-6-(2-(trifluoromethyl)pyridin-4-yl)-1,2,3,4-tetrahydronaphthalen-1-yl) carbamate]: the IC50 in test [1] worked out at 11.2 nM; in test [2] (read-out: IC50) it was 1.86 nM.
Take `CC1(C)CCc2cc(-c3cc(F)cc(F)c3)ccc2C1NC(=O)O[C@@H]1CN2CCC1CC2` (stereo partly drawn) [Example 104, (S)-quinuclidin-3-yl (6-(3,5-difluorophenyl)-2,2-dimethyl-1,2,3,4-tetrahydronaphthalen-1-yl)carbamate]: the IC50 in test [1] amounted to 2.25 nM; in test [2] (Homo sapiens, Jurkat, 72 h), 2.27 nM.
Consider `COCOc1ccccc1-c1ccc2c(c1)CCCC2NC(=O)O[C@@H]1CN2CCC1CC2` (stereo partly drawn) [Example 30, (S)-quinuclidin-3-yl (6-(2-(methoxymethoxy)phenyl)-1,2,3,4-tetrahydronaphthalen-1-yl)carbamate], for which the IC50 in test [1] came to 7.93 nM; in test [2] (Homo sapiens, Jurkat, 72 h), 71.4 nM.
